We go through three compounds from patent US7732134B2, “Methods to predict cholesterol elevation during immunosuppressant therapy” (Novartis AG, priority 2002, dated 2010).

Series [1] in a line: RAD B251 clinical trial: HDL cholesterol levels by IL-1β genotype and treatment group. Format: in vivo, human. Conditions: last visit. An excerpt:
(§1) The RAD B251 study was a randomized, multicenter, double-blind, parallel group study of the efficacy and safety of everolimus (Certican™) (RAD) versus mycophenolate mofetil (MMF) used in combination with cyclosporine (CsA) (NEORAL®) and prednisone. The study consisted of three periods: a Screening period, a Baseline period and a Double-Blind Treatment period. Following the Baseline assessments, patients who meet the inclusion/exclusion criteria were randomized into one of the three treatment groups (1:1:1) once it has been ascertained that the allograft is functional and that oral medication can be tolerated (within 48 hours post-transplantation). Determination of allograft function was by the investigator's judgement and was based upon adequate urine output and evidence of falling creatinine levels. The day of randomization and administration of the first dose of study medication was recorded as Day 1 of the study. […]
(§2) A treatment period of three years followed transplantation. […] Renal biopsies were required at Baseline (may be intra-operative) and at the time of any suspected rejection. Blinded study drug administration ceased at 3 years.
(§3) Male and female patients, 16-65 years of age who are scheduled to undergo primary cadaveric, living unrelated or non-HLA identical related donor kidney transplantation, were allowed to enter the study. Patients who discontinued the study prematurely were not replaced. Each patient had to meet all of the inclusion/exclusion criteria to be eligible for entry into the study.
(§4) A total of 82 unique samples from the RAD B251 clinical trial were genotyped upon their consent to participate in the pharmacogenetic evaluation. This represents about 15% of the total population that participated in the RAD B251 clinical trial. Blood samples from each patient were collected at the individual trial sites and then shipped to Covance (Geneva, Switzerland). The genomic DNA of each patient was extracted from the blood by Covance using the PUREGENE™ DNA Isolation Kit (D-50K) (Gentra, Minneapolis, Minn.).
(§5) An analysis of covariance model was used for the analysis of the effect of genotype and treatment on cholesterol levels using the 24-month lab_b.sd2 RADB 251 clinical data set. Terms in the model include the final cholesterol level, the initial cholesterol level as the covariant, and the genotype and treatment as the main effectors. The odds ratios, 95% confidence limits, and Chi-square analysis were calculated where applicable. All statistical analyses were performed using the SAS 8.02 software. To correct for multiple testing, the Bonferroni correction method was performed.

Series [2] is described as follows: RAD B251 clinical trial: LDL cholesterol levels by IL-1β genotype and treatment group. It counts as in vivo, human. The following applies: last visit.
Excerpt: The RAD B251 study was a randomized, multicenter, double-blind, parallel group study of the efficacy and safety of everolimus (Certican™) (RAD) versus mycophenolate mofetil (MMF) used in combination with cyclosporine (CsA) (NEORAL®) and prednisone. The study consisted of three periods: a Screening period, a Baseline period and a Double-Blind Treatment period. Following the Baseline assessments, patients who meet the inclusion/exclusion criteria were randomized into one of the three treatment groups (1:1:1) once it has been ascertained that the allograft is functional and that oral medication can be tolerated (within 48 hours post-transplantation). Determination of allograft function was by the investigator's judgement and was based upon adequate urine output and evidence of falling creatinine levels. The day of randomization and administration of the first dose of study medication was recorded as Day 1 of the study. The three treatment groups are described below: • Dose Level 1: 0.75 mg RAD bid+NEORAL®+prednisone • Dose Level 2: 1.5 mg RAD bid+NEORAL®+prednisone • Comparator 1 g MMF bid+NEORAL®+prednisone Concomitant Therapy Initiation and Maintenance of NEORAL®
as §2, §3, §4, §5

Series [3] in a line: RAD B251 clinical trial: total cholesterol levels by IL-1β genotype and treatment group. Format: in vivo, human. Conditions: for LS Mean Total Cholesterol Levels: RAD (1.5 and 3.0 mg/day), last visit; for odds ratio for increase in total blood cholesterol levels to a final concentration ≧240 mg/dL: RAD/NEORAL® regimen.
Excerpt: as §1, with “Following the Baseline assessments, patients who meet the inclusion/exclusion criteria were randomized into one of the three treatment groups (1:1:1) once it has been ascertained that the allograft is functional and that oral medication can be tolerated (within 48 hours post-transplantation).” left out
as §2, §3
(The values on the figures, etc. refer to the absolute serum cholesterol levels at the last visit, however during the statistical analysis this value was defined as the dependent variable and the cholesterol level at baseline as the independent variable thus automatically taking into consideration the baseline level).
A total of 82 unique samples from the RAD B251 clinical trial were genotyped upon their consent to participate in the pharmacogenetic evaluation. This represents about 15% of the total population that participated in the RAD B251 clinical trial. Blood samples from each patient were collected at the individual trial sites and then shipped to Covance (Geneva, Switzerland).
An analysis of covariance model was used for the analysis of the effect of genotype and treatment on cholesterol levels using the 24-month lab_b.sd2 RADB 251 clinical data set. Terms in the model include the final cholesterol level, the initial cholesterol level as the covariant, and the genotype and treatment as the main effectors. The odds ratios, 95% confidence limits, and Chi-square analysis were calculated where applicable. All statistical analyses were performed using the SAS 8.02 software. To correct for multiple testing, the Bonferroni correction method was performed. […]

Series [4] deals with cholesterol biosynthesis. The following applies: See El-Omar et al.; cited from earlier work.
Setting [5] is: (−31) IL-1β CC genotype, MMF (2 mg/day).
Where [6] appears, read: (−31) IL-1β CT genotype, MMF (2 mg/day).
Setting [7] is: (−31) IL-1β TT genotype, MMF (2 mg/day).
Setting [8] is: (−511) IL-1β CC genotype, MMF (2 mg/day).
[9] abbreviates: (−511) IL-1β CT genotype, MMF (2 mg/day).
The mark [10] stands for this setting: (−511) IL-1β TT genotype, MMF (2 mg/day).
Setting [11] is: (−31) IL-1β CC genotype, RAD (1.5 and 3.0 mg/day).
Where [12] appears, read: (−31) IL-1β CT genotype, RAD (1.5 and 3.0 mg/day).
Setting [13] is: (−31) IL-1β TT genotype, RAD (1.5 and 3.0 mg/day).
Where [14] appears, read: (−511) IL-1β CC genotype, RAD (1.5 and 3.0 mg/day).
The mark [15] stands for this setting: (−511) IL-1β CT genotype, RAD (1.5 and 3.0 mg/day).
Where [16] appears, read: (−511) IL-1β TT genotype, RAD (1.5 and 3.0 mg/day).

`COc1c(C)c2c(c(O)c1C/C=C(\C)CCC(=O)OCCN1CCOCC1)C(=O)OC2` [MMF, mycophenolate mofetil]: the “LS Mean HDL levels” value in series [1] (setting [5]) is recorded as 50.4 mg/dL; in series [1] (setting [6]), 56.8 mg/dL; in series [1] (setting [7]), 45.5 mg/dL; in series [1] (setting [8]) it was 45.5 mg/dL; in series [1] (setting [9]), 56.8 mg/dL; in series [1] (setting [10]), 50.4 mg/dL. Further, the “LS Mean LDL Levels” value in series [2] (setting [5]) was 143.1 mg/dL; in series [2] (setting [6]), 119.8 mg/dL; in series [2] (setting [7]), 107.8 mg/dL; in series [2] (setting [8]) it was 113.9 mg/dL; in series [2] (setting [9]), 118.6 mg/dL; in series [2] (setting [10]) it was 143.7 mg/dL.
For `CO[C@H]1C[C@@H]2CC[C@@H](C)[C@@](O)(O2)C(=O)C(=O)N2CCCC[C@H]2C(=O)O[C@H]([C@H](C)C[C@@H]2CC[C@@H](OCCO)[C@H](OC)C2)CC(=O)[C@H](C)/C=C(\C)[C@@H](O)[C@@H](OC)C(=O)[C@H](C)C[C@H](C)/C=C/C=C/C=C/1C` [RAD, everolimus], the “LS Mean Total Cholesterol Levels” value in series [3] ((−31) IL-1β CC genotype) is 291.1 mg/dL; in series [3] ((−31) IL-1β CT genotype), 240.4 mg/dL; in series [3] ((−31) IL-1β TT genotype) it was 216.6 mg/dL; in series [3] ((−511) IL-1β CC genotype), 217.3 mg/dL; in series [3] ((−511) IL-1β CT genotype) it was 242.9 mg/dL; in series [3] ((−511) IL-1β TT genotype) it was 290.3 mg/dL. Besides, the “odds ratio for increase in total blood cholesterol levels to a final concentration ≧240 mg/dL” value in series [3] (patients with a C at position (-31) in the IL-1β gene promoter (CC-CT vs TT)) was 7.23; in series [3] (patients with a T at position (-511) in the IL-1β gene promoter (CT-TT vs CC)) it was 5.67. The “LS Mean HDL levels” value in series [1] (setting [11]) was determined as 65.1 mg/dL; in series [1] (setting [12]), 55 mg/dL; in series [1] (setting [13]), 48.4 mg/dL; in series [1] (setting [14]) it was 47.6 mg/dL; in series [1] (setting [15]), 54.9 mg/dL; in series [1] (setting [16]), 68.4 mg/dL. Moreover, the “LS Mean LDL Levels” value in series [2] (setting [11]) amounted to 145.1 mg/dL; in series [2] (setting [12]), 124.1 mg/dL; in series [2] (setting [13]), 112.2 mg/dL; in series [2] (setting [14]) it was 112.5 mg/dL; in series [2] (setting [15]), 123.6 mg/dL; in series [2] (setting [16]) it was 144.5 mg/dL.
In the case of “IL-1β: interleukin-1-beta, cytokine reported to inhibit cholesterol biosynthesis”, the “inhibition of cholesterol biosynthesis” value in series [4] is given as 25%.
